One compound from patent publication US20080207521A1, “PEPTIDE LIGAND TO IMPAIR CANCER CELL MIGRATION” (priority 2005, published 2008) can be followed below.

For experiment [1], the system named is DDR1. Briefly: DDR1 phosphorylation in MDA-MB-468 cells (immunoprecipitation/Western blot). Conditions: PP1 10 μM for 30 min. The experiment is classed as cell-based, human. The protocol:
The phosphorylation status of DDR1 was analyzed as previously described (12), with the following modifications. After serum-depletion for 16 h, the cells were detached with Versene and then allowed to adhere to collagen I for 60 (MDA-MB-468) or 90 min (HB2) at 37° C. The experiments were terminated by lysing both adherent and non-adherent cells with a lysis buffer (50 mM Tris pH 7.4, 1% Triton-X, 5 mM EDTA, 5 mM EGTA, 50 mM NaCl, 10 μg/ml aprotinin, 2.5 mM benzamidine, 1 mM pefabloc, 1 μg/ml leupeptin and 1 mM Na3VO4). For immunoblotting an anti-DDR1 rabbit polyclonal Ab, sc-532 (Santa Cruz Biotech, Santa Cruz, Calif.) was used at a dilution of 1:10,000. The Ab recognizes DDR1b/c, which is essential because collagen only induces phosphorylation of the b or c isoforms of DDR1 in mammary epithelial cells (10).
Peptide-induced effects on adhesion and DDR1 phosphorylation in MDA-MB-468 breast cancer cells. (A) Western blot analysis of Wnt-5a protein expression in Wnt-5a antisense and Wnt-5a over-expressing HB2 cells in comparison to MDA-MB-468 tumour cells. […] The amounts of adhesive cells were analyzed as described in the methods and the results are given as means±SEM of 8 separate experiments. […] The amount of adherent cells was estimated as in panel A and expressed as means±SEM of 6 separate experiments, ns=not significant, ** p<0.01 and *** p<0.001. […]
A general note: A western blot detects proteins with antibodies after separation by electrophoresis.

Experiment [2] deals with T1, Src kinase (Homo sapiens, UniProt P12931).
T1 construct: Src activity in MDA-MB-468 cells in the absence and presence of PP1 and/or serum; endogenous in cells; host or cells: MDA-MB-468
Briefly: Src activity in MDA-MB-468 cells (Western blot). The experiment is classed as cell-based. Conditions: PP1 10 μM for last 30 min; with or without serum. The protocol:
Western blot analysis was performed to evaluate the protein expressions of Wnt-5a, EGF-receptor, Src and Frz-2 and 5 in HB2 and MDA-MB-468 cells. […] The Wnt-5a Ab has been produced in the laboratory, as previously described (9, 10). The cells were lysed and boiled in two times concentrated Laemmli buffer. The protein content was determined in each sample and adjusted to ensure loading of equal amounts of protein in each lane, 50 mM DTT was then added and the lysates were boiled for 10 min, before separation by SDS gel electrophoresis. The proteins were subsequently transferred to PVDF membranes. The membranes were blocked in 3% BSA or 5% non-fat milk for 45 min, incubated with the primary Ab for 1 h (1:2,000 for Wnt-5a, 1:1,000 for activated EGF-receptor, total EGF-receptor, actin, active Src and total Src, and 1:5,000 for Frz-2 and Frz-5), and then for 1 h with a horseradish peroxidase conjugated secondary Ab. The Ab-antigen complex was detected using an enhanced chemiluminescence detection kit from Amersham Pharmacia Biotech (Uppsala, Sweden). In the case of re-probing, the membranes were stripped with a Reblot Strong solution from Chemicon International (Temecula, Calif.).
(A) Effect of pre-treatment (30 min) with the Src-inhibitor PP1 (10 μM) on adhesion induced DDR1 phosphorylation in MDA-MB-468 cells. The blots shown are representative of 3 separate experiments. […]

T1 sequence (P12931 whole entry): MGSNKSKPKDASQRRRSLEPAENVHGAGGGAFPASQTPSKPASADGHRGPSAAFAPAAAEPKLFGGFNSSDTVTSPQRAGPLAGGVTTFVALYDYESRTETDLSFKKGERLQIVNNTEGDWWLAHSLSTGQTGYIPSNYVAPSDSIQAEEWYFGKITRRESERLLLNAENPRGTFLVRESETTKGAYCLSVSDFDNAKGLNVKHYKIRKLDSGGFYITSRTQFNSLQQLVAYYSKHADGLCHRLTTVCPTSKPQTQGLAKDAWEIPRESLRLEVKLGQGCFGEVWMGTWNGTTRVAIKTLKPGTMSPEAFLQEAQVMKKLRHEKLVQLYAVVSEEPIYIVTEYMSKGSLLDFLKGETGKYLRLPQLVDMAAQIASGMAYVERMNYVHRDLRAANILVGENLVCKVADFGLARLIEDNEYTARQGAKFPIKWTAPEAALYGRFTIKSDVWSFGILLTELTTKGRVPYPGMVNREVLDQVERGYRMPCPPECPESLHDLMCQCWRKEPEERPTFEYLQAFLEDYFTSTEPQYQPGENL

Consider `Cc1ccc(-c2nn(C(C)(C)C)c3ncnc(N)c23)cc1` [PP1, 4-amino-5-(4-methyl-phenyl)-7-(t-butyl)pyrozolo-D-3,4-pyrimidine, reference compound], for which the “basal phosphorylation of DDR1” value in experiment [1] is “abolished the basal phosphorylation of DDR1”. For the same compound, the Src kinase activity result in experiment [2] is listed as “abolished”.
